Measurements reported in patent US5336677A, “Substituted aminopyrimidines as antihypertensives” (American Home Products Corporation, priority 1992, dated 1994).
Counter-ions that a name gives are not always drawn.

target: angiotensin II receptor; experiment: rat adrenal receptor binding assay, displacement of radiolabeled angiotensin II (Inhibition of 125I Angiotensin II Binding); details: rat adrenal cortex membranes; 1 nM 125I-A II; 25° C.; 35 min
Description: The high affinity of the compounds for the angiotensin II receptor was established using a rat adrenal receptor binding assay, measuring the displacement of radiolabeled angiotensin II from the receptor, described as follows: Anesthetize male Sprague-Dawley rats (300-400 g body weight) with CO2 and sacrifice by cervical dislocation. Dissect adrenal glands and keep in ice-cold sucrose buffer. (0.2M sucrose, 1 mM EDTA, 10 mM Trizma base, pH=7.2). Remove medulla by squashing. Mince the cortex, rinse and homogenize in a chilled ground glass tissue grinder with 15 ml sucrose buffer. Centrifuge at 3000× g for 10 min. (Sorvall RCSC centrifuge, SS34 rotor 6200 rpm). Decant supernatant through gauze. Centrifuge combined supernatants at 12,000× g for 13 min. (Beckman ultracentrifuge, 80Ti rotor, 13,000 rpm). […] (Beckman ultracentrifuge, 80Ti rotor, 38,200 rpm). All steps are carried out at 4° C. Resuspend the pellet in 0.5 mL assay buffer (50 mM Tris HCI, 5 mM MgCl2, 0.2% BSA (protease-free), pH= 7.4, 25° C.). Store on ice. Determine membrane protein by Lowry or Bradford assay with BSA as standard. The binding assay is performed in triplicate, in 12×75 mm plastic test tubes or in 96-well plate (final volume of 0.25 mL). Add 140 μL assay buffer. […] Add 50 μL membrane suspension (e.g., 10 μg protein). Preincubate for 30 min at 25° C. […] Incubate for 35 min at 25° C. Stop the incubation by adding 1 mL ice-cold buffer (assay buffer without BSA). Filter with GF/C filters on cell harvester (filters are presoaked in the assay buffer containing 1% polyethyleneimine). Rinse assay tubes 3× with 5 mL cold buffer (assay buffer without BSA). Cut and deposit the filter discs into test tubes and count on gamma counter for 1 min. […] Calculate the quantities of hot A II and the cold A II needed and make the dilution. Aliquot, seal tight, and store frozen until needed. Calculate the concentration of the total A II (hot+cold) after dilution. On the day of assay, thaw the frozen aliquot and adjust the volume to give a concentration of 5 pmole/mL (or 0.25 pmole/50 μL) with assay buffer (+protease-free BSA).

IC50 [nM] | SMILES
200 | Cc1nc(C)c(CC(=O)O)c(NCc2ccc(-c3ccccc3-c3nnn[nH]3)cc2)n1 [Example 56, [2,6-Dimethyl-N-[(2'-(1H-tetrazol-5-yl)[1,1-biphenyl]-4-yl)methyl]-4-pyrimidinamin-5-yl]acetic acid]
2.5 | CCCc1c(CC)nc(C(F)(F)F)nc1NCc1ccc(-c2ccccc2-c2nnn[nH]2)cc1 [Example 46, 6-Ethyl-5-propyl-N-[[2'-(1H-tetrazol-5-yl)[1,1'-biphenyl]-4-yl]methyl]-2-(trifluoromethyl)-4-pyrimidinamine sodium salt]
11 | CCc1c(NCc2ccc(-c3ccccc3-c3nnn[nH]3)cc2)nc(C)nc1C(F)(F)C(F)(F)F [Example 43, 5-Ethyl-2-methyl-N-[[2'-(1H-tetrazol-5-yl)[1,1'-biphenyl]-4-yl]methyl]-6-(pentafluoroethyl)-4-pyrimidinamine sodium salt hydrate]
58 | Cc1nc(C)c(Cc2cccs2)c(NCc2ccc(-c3ccccc3-c3nnn[nH]3)cc2)n1 [Example 55, 2,6-Dimethyl-5-(2-thienylmethyl)-N-[(2'-(1H-tetrazol-5-yl)[1,1-biphenyl]-4-yl)methyl]-4-pyrimidinamine]
25 | CCCc1c(C)nc(C(F)(F)F)nc1NCc1ccc(-c2ccccc2-c2nnn[nH]2)cc1 [Example 34, 6-Methyl-5-propyl-N-[[2'-(1H-tetrazol-5-yl)[1,1'-biphenyl]-4-yl]methyl]-2-(trifluoromethyl)-4-pyrimidinamine sodium salt hemihydrate]
3 | Cc1nc(C(F)(F)F)nc(NCc2ccc(-c3ccccc3-c3nnn[nH]3)cc2)c1C(C)C [Example 35, 6-Methyl-5-(1-methylethyl)-N-[[2'-(1H-tetrazol-5-yl)[1,1'-biphenyl]-4-yl]methyl]-2-(trifluoromethyl)-4-pyrimidinamine sodium salt sesquihydrate]
500 | Cc1cc(NCc2ccc(-c3ccccc3C(=O)O)cc2)nc(C(F)(F)F)n1 [Example 52, 4'-[[[6-Methyl-2-(trifluoromethyl)-4-pyrimidinyl]amino]methyl][1,1'-biphenyl]-2-carboxylic acid]
39 | C#CCc1c(C)nc(C)nc1NCc1ccc(-c2ccccc2-c2nnn[nH]2)cc1 [Example 57, 2,6-Dimethyl-5-(2-propynyl)-N-[(2'-(1H-tetrazol-5-yl)[1,1-biphenyl]-4-yl)methyl]-4-pyrimidinamine]
39 | FC(F)(F)C(F)(F)c1cc(NCc2ccc(-c3ccccc3-c3nnn[nH]3)cc2)nc(C2CC2)n1 [Example 37, 2-Cyclopropyl-6-(pentafluoroethyl)-N-[[2'-(1H-tetrazol-5-yl)[1,1'-biphenyl]-4-yl]methyl]-4-pyrimidinamine hydrate]
6.5 | CCc1nc(C(F)(F)F)nc(NCc2ccc(-c3ccccc3-c3nnn[nH]3)cc2)c1C(C)C [Example 40, 6-Ethyl-5-(1-methylethyl)-N-[[2'-1H-tetrazol-5-yl)[1,1'-biphenyl]-4-yl]methyl]-2-(trifluoromethyl)-4-pyrimidinamine sodium salt]
41 | Cc1cccc(Cc2c(NCc3ccc(-c4ccccc4-c4nnn[nH]4)cc3)nc(C)nc2C(F)(F)F)c1 [Example 42, 2-Methyl-5-[(3-methylphenyl)methyl]-N-[[2'-(1H-tetrazol-5-yl)[1,1'-biphenyl]-4-yl]methyl]-6-(trifluoromethyl)-4-pyrimidinamine sodium salt]
7.5 | C=CCc1c(C)nc(C)nc1NCc1ccc(-c2ccccc2-c2nnn[nH]2)cc1 [Example 53, 2,6-Dimethyl-5-(2-propenyl)-N-[(2'-(1H-tetrazol-5-yl)[1,1-biphenyl]-4-yl)methyl]-4-pyrimidinamine]
5.6 | CCc1cc(NCc2ccc(-c3ccccc3-c3nnn[nH]3)cc2)nc(C(F)(F)F)n1 [Example 36, 6-Ethyl-N-[[2'-(1H-tetrazol-5-yl)[1,1'-biphenyl]-4-yl]methyl]-2-(trifluoromethyl)-4-pyrimidinamine sodium salt sesquihydrate]
330 | Cc1nc(NCc2ccc(-c3ccccc3C(=O)O)cc2)cc(C(F)(F)C(F)(F)F)n1 [Example 50, 4'-[[[2-Methyl-6-(pentafluoroethyl)-4-pyrimidinyl]amino]methyl][1,1'-biphenyl]-2-carboxylic acid hemihydrate]
850 | Cc1nc(NCc2ccc(-c3ccccc3C(=O)O)cc2)cc(C(F)(F)F)n1 [Example 51, 4'-[[[2-Methyl-6-(trifluoromethyl)-4-pyrimidinyl]amino]methyl][1,1'-biphenyl]-2-carboxylic acid sesquihydrate]
16 | C=CCc1c(C)nc(C(F)(F)F)nc1NCc1ccc(-c2ccccc2-c2nnn[nH]2)cc1 [Example 54]
61 | Cc1nc(NCc2ccc(-c3ccccc3-c3nnn[nH]3)cc2)cc(C(F)(F)F)n1 [Example 48, 2-Methyl-N-[[2'-(1H-tetrazol-5-yl)[1,1'-biphenyl]-4-yl]methyl]-6-(trifluoromethyl)-4-pyrimidinamine hydrate]
38 | Cc1nc(NCc2ccc(-c3ccccc3-c3nnn[nH]3)cc2)cc(C(F)(F)C(F)(F)F)n1 [Example 47, 2-Methyl-6-(pentafluoroethyl)-N-[[2'-(1H-tetrazol-5-yl)[1,1'-biphenyl]-4-yl]methyl]-4-pyrimidinamine sodium salt hydrate]
20 | Cc1nc(NCc2ccc(-c3ccccc3-c3nnn[nH]3)cc2)c(C)c(C(F)(F)F)n1 [Example 44, 2,5-Dimethyl-N-[[2'-(1H-tetrazol-5-yl)[1,1'-biphenyl]-4-yl]methyl]-6-(trifluoromethyl)-4-pyrimidinamine hemihydrate]
49 | CCCc1cnc(C(F)(F)F)nc1NCc1ccc(-c2ccccc2-c2nnn[nH]2)cc1 [Example 39, 5-Propyl-N-[[2'-(1H-tetrazol-5-yl)[1,1'-biphenyl]-4-yl]methyl]-2-(trifluoromethyl)-4-pyrimidinamine sodium salt hydrate]
7.8 | CCc1cc(NCc2ccc(-c3ccccc3-c3nnn[nH]3)cc2)nc(C)n1 [Example 38, 6-Ethyl-2-methyl-N-[[2'-(1H-tetrazol-5-yl)[1,1'-biphenyl]-4-yl]methyl]-4-pyrimidinamine acetate trihydrate]

SMILES | IC50 [nM]
Cc1nc(C(F)(F)F)nc(NCc2ccc(-c3ccccc3-c3nnn[nH]3)cc2)c1Cc1ccccc1 [Example 45, 6-Methyl-5-(phenylmethyl)-N-[[2'-(1H-tetrazol-5-yl)[1,1'-biphenyl]-4-yl]methyl]-2-(trifluoromethyl)-4-pyrimidinamine sodium salt hydrate] | 48

tested on: A II-infused rat; experiment: A II-infused rat model, antihypertensive action; assay type: in vivo; details: 3 mg/kg id (duodenal); four hours post-administration; ganglion-blocked (mecamylamine), A II infusion 0.25 μg/kg/min
Description: In accordance with their ability to antagonize angiotensin II, the compounds of this invention show antihypertensive action in the following A II-infused rat model. Rats are anesthetized with Dial-Urethane (0.60 mL/kg, ip) and the trachea cannulated with PE 240. Either one femoral artery and both femoral veins or the carotid artery and the corresponding jugular vein are cannulated with PE 50. If the jugular vein is cannulated, two cannulas are placed in the one vein. The initial portion of the duodenum (just distal to the stomach) is cannulated with PE 50 via a small midline incision. Arterial pressure and heart rate are measured from the arterial cannula. Ten to 15 min are allowed following surgery for stabilization of arterial pressure. Ganglion blockade is then produced by intravenous administration of mecamylamine at 3 mg/kg (1 mL/kg of a 3 mg/mL solution). Ganglion blockade causes a fall in arterial pressure of about 50 mmHg. Mecamylamine is given every 90 min throughout the remainder of the experiment. An A II infusion is then begun into the other venous cannula at 0.25 μg/kg/min (at 9.6 u Vmin). The A II infusion returns arterial pressure to or slightly above the control level. Once arterial pressure has stabilized with the A II infusion, baseline values for mean arterial pressure (MAP) and heart rate are taken. […]

SMILES | lowering of the A II dependent blood pressure (average) [%]
Cc1nc(NCc2ccc(-c3ccccc3-c3nnn[nH]3)cc2)cc(C(F)(F)C(F)(F)F)n1 [Example 47, 2-Methyl-6-(pentafluoroethyl)-N-[[2'-(1H-tetrazol-5-yl)[1,1'-biphenyl]-4-yl]methyl]-4-pyrimidinamine sodium salt hydrate] | 57
